Consider 56 substances from patent US20240368668A1, “SUBSTRATES AND BIOMARKERS OF ADAMTS7” (The Broad Institute, Inc., priority 2021, published 2024).

Square brackets hold non-standard residues; d marks the D form. Ends that are not written are not given here. deamidated = deamidated asparagine; Met(O) = CS(=O)CC[C@H](N)C(=O)O

One assay has as its system mouse ADAMTS7. In words: TMT10 TAILS N-terminomics, SMC1 experiment (Ad-mADAMTS7 WT vs EQ vs Luc, technical replicates, trypsin digest). The following applies: TAILS HC Overlap; SMC1; log fold change mouse ADAMTS7 WT over catalytically inactive EQ. The assay is classed as cell-based. The gist of the method:
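Full-length mouse ADAMTS7 (WT or E373Q mutant, C-terminal 3xFLAG) or luciferase was transduced via adenovirus, 50 MOI, into HCA-SMC (SMC1, SMC2) or HUVEC. SMC1: pooled media, technical triplicates 400 ug; SMC2: process triplicates 300 ug; HUVEC: process triplicates 200 ug, bFGF2 10 ng/ml.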
Regarding “SERBP1_56 (QAAAQTNSNAAGKQLR; listed as Homo sapiens)”, the “SMC1 logFC.mWT.over.mEQ” value was 4.06.
“SRGN_59 (LLPGESNKIPR; listed as Homo sapiens)”: the “SMC1 logFC.mWT.over.mEQ” value is listed as 4.33.
Same read-out and setting: as for “THBS2_290 (LSENLKR; listed as Homo sapiens)”, the figure is 4.05; as for “VIM_314 (QESTEYR; listed as Homo sapiens)”, 2.60; as for “VIM_333 (LKGTNESLER; listed as Homo sapiens)”, 4.39.

The same assay, now with this note: TAILS neo-N-terminal peptide abundance; log fold change, Ad-mADAMTS7 WT over EQ.
“CDC37_43 (FQKEKEELDR; listed as Homo sapiens)” had a logFC.mWT.over.mEQ of 1.88.
The same measure, in the same setting: as for “CDH11_467 (HQEAKVPVAIR; listed as Homo sapiens)”, the figure is 2.06; as for “CLEC11A_50 (HLQEALGLPAGR; listed as Homo sapiens)”, 1.42.
On the same count and under the same terms, for “COL1A2_80 (QYDGKGVGLGPGPMGLMGPR; listed as Homo sapiens)” the value was 2.36.
Same read-out and setting: as for “COL1A2_91 (GPMGLMGPR; listed as Homo sapiens)”, the figure is 1.16.
As for “COL1A2_113 (FQGPAGEPGEPGQTGPAGAR; listed as Homo sapiens)”, the logFC.mWT.over.mEQ is reported as 2.27.
Same read-out and setting: for “COL1A2_270 (VGNAGPAGPAGPR; listed as Homo sapiens)” the value was 2.82; for “COL1A2_305 (LTGAKGAAGLPGVAGAPGLPGPR; listed as Homo sapiens)”, 1.63; for “COL1A2_389 (SAGPPGPPGLR; listed as Homo sapiens)”, 0.72.
Still for that read-out and setting: as for “COL1A2_425 (ASGPAGVR; listed as Homo sapiens)”, the figure is 1.34; as for “COL1A2_630 (VGTAGPSGPSGLPGER; listed as Homo sapiens)”, 1.45; as for “COL1A2_681 (VGAPGPAGATGDR; listed as Homo sapiens)”, 1.60.
The substance “COL1A2_731 (AAGQPGAKGER; listed as Homo sapiens)” had a logFC.mWT.over.mEQ of 1.03.
“COL1A2_866 (LLGAPGILGLPGSR; listed as Homo sapiens)” registered a logFC.mWT.over.mEQ of 3.72.
In turn, “COL1A2_960 (AGAPGPHGPVGPAGKHGNR; listed as Homo sapiens)” gave a logFC.mWT.over.mEQ of 2.91.
Same read-out and setting: as for “COL1A2_1028 (LQGLPGIAGHHGDQGAPGSVGPAGPR; listed as Homo sapiens)”, the figure is 1.79; as for “COL1A2_1037 (HHGDQGAPGSVGPAGPR; listed as Homo sapiens)”, 3.09.
Same read-out and setting: as for “COL1A2_1127 (SLRPKDYEVDATLKSLNNQIETLLTPEGSR; listed as Homo sapiens)”, the figure is 2.68; as for “COL4A2_71 (YNGPPGLQGFPGLQGR; listed as Homo sapiens)”, 2.14.
In the case of “COL4A2_172 (YALPKEER; listed as Homo sapiens)”, the logFC.mWT.over.mEQ came out at 5.21.
The same measure, in the same setting: for “COL5A1_544 (SQAQAILQQAR; listed as Homo sapiens)” the value was 1.08; for “COL8A1_90 (MKEIQPAPR; listed as Homo sapiens)”, 1.35.
Turning to “COL18A1_1505 (LQPPVVQLHDSNPYPR; listed as Homo sapiens)”, the logFC.mWT.over.mEQ is given as 1.42.
Same read-out and setting: for “ECM1_43 (YAAPPSPPLSR; listed as Homo sapiens)” the value was 0.68.
Still for that read-out and setting: as for “LTBP2_1602 (EAGVHFR; listed as Homo sapiens)”, the figure is 0.99.
Consider “MAN2A1_51 (LQEKIDHLER; listed as Homo sapiens)”, for which the logFC.mWT.over.mEQ is 1.86.
With “MAP1B_1065 (LTTPTKQLGAQSPGR; listed as Homo sapiens)”, the logFC.mWT.over.mEQ came to 1.30.
“MAP4_815 (AVASTGPSSR; listed as Homo sapiens)” came in with a logFC.mWT.over.mEQ of 1.19.
Same read-out and setting: for “MAP4_816 (VASTGPSSR; listed as Homo sapiens)” the value was 1.62; for “MGAT4B_28 (LSGQKGDVVDVYQR; listed as Homo sapiens)”, 1.66.
The same measure, in the same setting: for “MMP1_24 (LETQEQDVDLVQKYLEKYYNLKN(deamidated)DGR; listed as Homo sapiens)” the value was 2.31; for “NID2_291 (HSSVPLGR; listed as Homo sapiens)”, 4.04; for “NID2_374 (VGGPDLKGQVEPWDER; listed as Homo sapiens)”, 4.94.
Still for that read-out and setting: as for “NID2_467 (LEDNIGSNTEVFTYNAANKETCEHNHR; listed as Homo sapiens)”, the figure is 2.66.
“NID2_951 (YAYPGAR; listed as Homo sapiens)” showed a logFC.mWT.over.mEQ of 3.92.
Still for that read-out and setting: as for “NUCB1_228 (LKEVWEELDGLDPNR; listed as Homo sapiens)”, the figure is 1.63; as for “NUCB1_317 (FLASTQR; listed as Homo sapiens)”, 4.87.
Still for that read-out and setting: for “NUCB1_389 (LQQAVLHMEQR; listed as Homo sapiens)” the value was 2.09; for “OS9_54 ([code q]SQSSDVVIVSSKYKQR; also: modified N-terminal Gln; listed as Homo sapiens)”, 2.81; for “OS9_55 (SQSSDVVIVSSKYKQR; listed as Homo sapiens)”, 2.29.
On the same count and under the same terms, as for “PAPPA_41 (AAGPATCATR; listed as Homo sapiens)”, the figure is 3.48; as for “PDLIM4_104 (IDPEIQDGSPTTSR; listed as Homo sapiens)”, 1.13; as for “POLR3G_88 (LFCSHWSHIPGFK; listed as Homo sapiens)”, 1.51.
For the substance “POSTN_413 (FSDDTLSMDQR; listed as Homo sapiens)”, the logFC.mWT.over.mEQ came to 2.31.
Same read-out and setting: for “POSTN_754 (IITGPEIKYTR; listed as Homo sapiens)” the value was 1.68; for “POSTN_790 (FIEGGDGHLFEDEEIKR; listed as Homo sapiens)”, 1.18.
Same read-out and setting: for “POSTN_807 (LLQGDTPVR; listed as Homo sapiens)” the value was 1.17; for “PPP1R18_295 (LSETLTR; listed as Homo sapiens)”, 3.68.
On the same count and under the same terms, for “PSAP_171 (F[Met(O)]ANIPLLLYPQDGPR; listed as Homo sapiens)” the value was 1.03; for “PXDN_1341 (SYQEDKPTKKTR; listed as Homo sapiens)”, 5.26; for “PXDN_1393 (QKTITDLR; listed as Homo sapiens)”, 4.77.
